Where two headings read alike, the source gives them in different places. Marks after values point to notes of the source that are not given here. Values belong to the compound of their own block, whether it stands above or below them.
What was measured:
in vitro = conditions: human, blood
Description: (§1) 1 mM stock solutions of the test compounds were prepared in DMSO, and a 1 mM stock solution of the reference compound propantheline was prepared in acetonitrile.
(§2) 4 µL of test compound (or reference compound) stock solution was added to 796 µL of pre-incubated human blood (whole blood) at a final concentration of 5 µM. The final concentration of the solvent was 0.5%. At different time points (including 5 min, 15 min, 30 min, 60 min, and 120 min), a 50 µL aliquot of the whole blood containing the sample was added to a new tube and incubated in a 37 °C water bath with shaking at 60 rpm. The treatment was performed in duplicate. At designated time points, 300 µL of room-temperature quenching solution (a solution of acetonitrile containing internal standards (100 nM alprazolam, 500 nM labetalol, and 2 µM ketoprofen)) was added to the whole blood sample containing the sample to terminate the reaction. 50 µL of whole blood containing the sample was added to a new tube containing 300 µL of room-temperature quenching solution to prepare a sample at 0 min. All samples were vortexed for 5 min. The samples in the plate were centrifuged at 3220 g for 30 min at 4 °C to precipitate the proteins. 100 µL of the supernatant was transferred to a new 96-well plate containing 100 µL of water for LC-MS/MS analysis.
(§3) The peak area ratio was determined by using an extracted ion chromatogram. The proportion of remaining compound at each time point was calculated according to the following formula: Remaning proporion t min (%) = peak area ratio t min / peak area ratio 0 min × 100% [formula] • Peak area ratio t min: peak area ratio of reference compound to test compound at t min; • Peak area ratio 0 min: peak area ratio of reference compound to test compound at time zero.
(§4) The slope value was determined by linear regression on the curve of the natural logarithm of the remaining proportion of the test compound versus the incubation time.
(§5) Determination of in vitro half-life (in vitro t1/2) from the slope value: in vitro t1/2 = 0.693/k [formula] in the formula, k is the rate constant (k = -slope value)

[1] = Metabolic stability assay in liver microsomes; type: in vitro ADME; conditions: pH 7.4, human liver microsome 0.5 mg/mL, 1 mM NADPH, compound 1 µM, 37 °C; for microsomal CLint at 1 µM: read-out: In vitro Clint; for half-life at 1 µM: read-out: In vitro T1/2
Description: The metabolic stability of compounds disclosed herein in liver microsomes was determined using the following method.
• 1. Liver microsome source: Human liver microsome (Corning, 452117) • 2. Na2HPO4 (Tianjin Guangfu Fine Chemical Research Institute, 20180130) • 3. KH2PO4 (Tianjin Guangfu Fine Chemical Research Institute, 20180920) • 4. MgCl2 (Tianjin Guangfu Fine Chemical Research Institute, 20191216) • 5. NADPH (Solarbio, 1216C022) • 6. Positive control compound verapamil (Sigma, MKBV4993V) • 7. AB Sciex Triple Quad 4000 liquid chromatography-mass spectrometry system
1. Preparation of 100 mM phosphate-buffered saline (PBS): 7.098 g Na2HPO4 was dissolved in 500 mL of purified water by sonication to give solution A. 3.400 g of KH2PO4 was dissolved in 250 mL of purified water by sonication to give solution B. Solution A was placed on a stirrer, and solution B was added slowly until the pH reached 7.4, so as to give a 100 mM PBS buffer. 2. Preparation of reaction system The reaction system was prepared according to the table below.
3. The reaction system was pre-incubated in a 37 °C water bath for 10 min. 40 µL of 10 mM NADPH solution (NADPH was dissolved in 100 mM phosphate-buffered saline) was added to the reaction system, with the final concentration of NADPH being 1 mM. A negative control was prepared by replacing the NADPH solution with 40 µL of phosphate-buffered saline. The negative control was used to exclude the effect of the chemical stability of the compound itself. 4. The reaction was initiated by adding 4 µL of 100 µM compound disclosed herein or positive control compound verapamil to the reaction system at a final concentration of 1 µM. 5. After 0.5 min, 15 min, 30 min, 45 min, and 60 min of mixing well by using a vortex oscillator, 50 µ L of the incubated sample was taken out, and glacial acetonitrile containing an internal standard of 4 folds was added to terminate the reaction. The sample was centrifuged at 3,220 g for 45 min. 90 µL of the supernatant was transferred to a feeding plate after the centrifugation was completed, and 90 µL ultrapure water was added. The mixture was well mixed for LC-MS/MS analysis.
All data were calculated by using Microsoft Excel software. The peak areas were determined by using an extracted ion chromatogram. The in vitro half-life (T1/2) of the test compound was determined by linear fitting of the natural logarithm of the elimination proportion of the test compound over time. In vitro half-life (T1/2) was calculated by the slope k: in vitro T1/2 = 0.693/k [formula]
The in vitro intrinsic clearance (in vitro CLint, unit: µL/min/mg protein) was calculated using the following formula: in vitro CLint = k × volume of incubation solution/enzyme protein content; [formula]

AR = AR antagonistic activity: AR / PSA ARE1 luciferase reporter gene assay in transfected LNCaP cells stimulated with 1 nM DHT; type: cell-based; conditions: treatment concentration: 3.3 µM, 24 h, normalised to 0.1% DMSO and 30 µM enzalutamide
Description: LNCaP cells were plated in a 6-well plate (Corning, 3516) at 8 × 10^5 cells/well.
AR and PSA ARE1 reporter gene plasmids (Bio (Anhui) Co., Ltd.) and transfection reagents Lipo3000 and P3000 (Lipofectamine™ 3000) (a total of 2.5 µg of plasmids, i.e., 1.25 µg of each plasmid, were added to each well) were left to stand and incubated for 10 min, and then 250 µL of the above transfection reagents were added dropwise to each well containing cells and co-incubated with the cells for 24 h.
The cells were washed with PBS, and the medium was replaced with a phenol red-free RPMI-1640 medium containing 5% carbon adsorption serum (or 10% fetal bovine serum and 1% penicillin and streptomycin). The cells were re-plated onto a 96-well plate (Corning, 3603) according to the number of cells plated (2 × 10^4 cells/well).
After cell plating, the test compound (or DMSO or positive control) was added. After at least 30 min of incubation, DHT (dihydrotestosterone) was added to the culture system at a final concentration of 1 nM. The culture system was then incubated in a carbon dioxide incubator.
Test compound: 10 mM stock solution, with a final concentration of 3.3 µM or 6.7 µM. Negative control: 0.1% DMSO. Positive control: 30 µM enzalutamide.
After the test compound (or DMSO or positive control) and DHT were co-incubated for 24 h, the luciferase signal was detected using the Vazyme Bright-Lite substrate. The medium was added at 70 µL/well, and the plate was shaken for 2 min, followed by reading of the luciferase signal.
Assay robustness was confirmed using the DMSO and low concentration control data: Ave_H = Ave(DMSO) [formula] Ave_L = Ave (30μMenzalutamide) [formula] Inhibition rate (%) = (Ave_H−Sample)/(Ave_H−Ave_L) × 100% [formula] Ave_H: the measurement of the negative control (0.1% DMSO); Ave_L: the measurement of the positive control (30 µM enzalutamide); Sample: the measurement of the test compound; The corresponding activity test results for the test compounds were specified in Table 1. Table 1. Corresponding activity test results for compounds disclosed herein

C57BL/6 mice [2] = conditions: mouse, in vivo
Description: (§6) Animal information: C57BL/6 mice (male, aged 4-6 weeks, about 18-20 g), purchased from Shanghai Lingchang Biotechnology Co., Ltd. The mice were bred in an SPF-level environment within independently ventilated cages.
(§7) Skin preparation: After 1-2 weeks of acclimation, the hairs in a 2 cm × 3 cm area of the back of the mice were shaved to confirm that the hairs of the mice were in the telogen phase (the skin was pink) and the skin was not damaged.
(§8) Treatment: On day 3 after shaving, the mice were grouped for treatment. […] The control group received the control solvent. 12 mice were in each group.
(§9) The mice were weighed on days 10, 13, 18, 21, 25, and 30, and the hair growth state was scored and photographed.
(§10) The scoring criteria are as follows: • 0: no growth, with pink skin in the shaved area; • 1: the skin in the shaved area was gray (an increase of less than 20%); • 2: the skin in the shaved area was black (more than 20% but less than 40%); • 3: the skin in the shaved area was black with a little hair growth (more than 40% but less than 60%); • 4: the skin in the shaved area was black with partial hair growth (more than 60% but less than 80%); • 5: basically complete hair growth (80%-100% growth) in the shaved area.

[3] = 5 µM
Description: as §1, §2, §3, §4, §5

C57BL/6 mice [4] = assay: In vivo pharmacodynamic study 1: hair growth scoring in shaved telogen-phase mice, topical treatment; conditions: for Score (mean±SD): hair growth score 0-5, topical twice daily, compound 001 2 wt%, compound 008 0.5 wt%
Description: as §6, §7, §8, §9, §10

C57BL/6 mice [5] = assay: In vivo pharmacodynamic study 2: hair growth scoring in shaved telogen-phase mice, topical treatment; conditions: for Score (mean±SD): hair growth score 0-5, 0.5 wt% topical twice daily
Text: Vehicle: propylene glycol/ethanol (30:70, v/v)
A 1 cm × 1 cm area in the center of the back skin was selected as the treatment area.
The control group received the control solvent. 12 mice were in each group.
The mice were weighed on days 9, 12, 15, 19, and 22, and the hair growth state was scored and photographed.

Whole blood stability = conditions: human
Description: as §1, §2, §3, §4, §5

[6] = at the investigated doses (0.5 wt%, BID topical)

SMILES: CCOC(=O)C(C)(O)C(=O)Nc1cnc(C#N)c(SC)c1 (single isomer, unassigned) [Compound 016B]
- half-life at 5 µM (in vitro): 1.69 h
- microsomal CLint at 1 µM ([1]; microsomes): 88.3 µL/min/mg
- half-life at 1 µM ([1]; microsomes): 0.262 h
- AR antagonism (inhibition rate, %) (AR): 90.50^a %

SMILES: CCOC(=O)C(C)(O)C(=O)Nc1cnc(C#N)c(C(F)(F)F)c1 (stereo not shown) [Compound 001, Ethyl 3-[[6-cyano-5-(trifluoromethyl)-pyridin-3-yl]amino]-2-hydroxy-2-methyl-3-oxopropanoate]
- impact on the body weight of the mice (C57BL/6 mice [2]): no significant impact
- signs of erythema, dehiscence, desquamation, and the like on the skin (C57BL/6 mice [2]): no signs
- Human whole blood half-life T1/2 [3]: 2.9982 h
- AR antagonism (inhibition rate, %) (AR): 86.6^a %
- Score (mean±SD) (C57BL/6 mice [4]; Day 0): 0
- Score (mean±SD) (C57BL/6 mice [4]; Day 10): 0.6±0.5
- Score (mean±SD) (C57BL/6 mice [4]; Day 13): 0.9±0.9
- Score (mean±SD) (C57BL/6 mice [4]; Day 18): 1.3±1.4
- Score (mean±SD) (C57BL/6 mice [4]; Day 21): 1.9±1.8
- Score (mean±SD) (C57BL/6 mice [4]; Day 25): 2.4±2.2
- Score (mean±SD) (C57BL/6 mice [4]; Day 30): 3.0±1.8
- effect on mouse hair growth (C57BL/6 mice [4]; compound 001 at 2%, compound 008 at 0.5%, BID topically at 20 µL/cm^2): significant promoting effect
- day of the treatment from which hair growth was significantly promoted (C57BL/6 mice [4]; vs. vehicle control, 001 P < 0.01, 008 P < 0.05): ≥ 10 days

- signs of erythema, dehiscence, desquamation, and the like on the skin (C57BL/6 mice [5]; [6]): no signs
- microsomal CLint at 1 µM ([1]; human liver microsomes): 91.8 µL/min/mg
- half-life at 1 µM ([1]; human liver microsomes): 0.252 h
- half-life at 5 µM (Whole blood stability): 2.2 h
SMILES: CCOC(=O)[C@@](C)(O)C(=O)Nc1cnc(C#N)c(SC)c1 [Compound 016A, ethyl (2S)-3-[(6-cyano-5-methylthio-pyridin-3-yl)amino]-2-hydroxy-2-methyl-3-oxopropanoate]
- effect on hair growth (C57BL/6 mice [5]; 0.5 wt%, BID topically at 20 µL/cm^2): significant promoting effect
- Score (mean±SD) (C57BL/6 mice [5]; Day 0): 0
- Score (mean±SD) (C57BL/6 mice [5]; Day 9): 0.1±0.3
- Score (mean±SD) (C57BL/6 mice [5]; Day 12): 0.1±0.3
- Score (mean±SD) (C57BL/6 mice [5]; Day 15): 0.5±0.8
- Score (mean±SD) (C57BL/6 mice [5]; Day 19): 1.7±1.5
- Score (mean±SD) (C57BL/6 mice [5]; Day 22): 2.9±1.6
- impact on the body weight of the mice (C57BL/6 mice [5]; [6]): no significant impact
- day of the treatment from which hair growth was significantly promoted (C57BL/6 mice [5]; vs. vehicle control, P < 0.0001): ≥ 19 days
- AR antagonism (inhibition rate, %) (AR): 99.98^a %
